# Assay results: article PMC7764606 (Cancers, 2020)
# pIC50: −log10 of the molar value.
# Legend:
# Assay type in all cases: cell-based, human
# HCT116-EV cells = test: MTT cell viability, HCT116-EV cells (incl. Chou-Talalay analysis)
# Experimental: (§1) HCT116 cells were seeded (1.25 × 10^5 cells/well) in 24-well plates and cultured for 24 h. For the transient expression of the recombinant human AKR1C3, the cells were transfected with a pCI_AKR1C3 or empty pCI plasmid as control (previously described in a study by Hofman et al.) according to the manufacturer’s instructions (jetPRIME® Transfection Reagent; Polyplus Transfection®, Illkirch, France). For each 24-well plate, a mixture of 0.75 µL of the jetPRIME® Transfection Reagent and 0.25 µg of plasmid was incubated for 10 min at room temperature. Then, polyplexes were added to the HCT116 cells with 0.5 mL of fresh DMEM supplemented with 10% FBS and incubated for 24 h (37 °C, 5% CO2). The expression of recombinant AKR1C3 was verified by western blotting as per methods described previously.
# (§2) Twenty-four hours prior to the experiment, transfected HCT116 cells (8 × 10^3 cells/well) or A549 cells (5 × 10^3 cells/well) were seeded in 96-well plates. The cell culture medium was replaced with fresh medium containing increasing amounts of Dau (final concentrations: 0.01, 0.05, 0.1, 0.25, 0.5, 0.75, 1, and 10 µM) with or without BTK inhibitors (final concentrations: 1, 5, and 10 µM). After 72 h of incubation under standard conditions (37 °C, 5% CO2), cell viability was assessed by MTT (Sigma-Aldrich, Prague, Czech Republic) assay. For this, 50 µL of the MTT solution (3 mg/mL) was added to each well and incubated for 30 min. The supernatant was collected, and the cell monolayers were dissolved in 100 µL of DMSO. The absorbance was measured at 570 and 690 nm by a microplate reader Infinite M200 (Tecan, Salzburg, Austria), and the background values at 690 nm were subtracted from the absorbance obtained at 570 nm. The half-maximal inhibitory concentrations (IC50) were calculated using GraphPad Prism 8.1.2. The drug combination pharmacodynamics were determined by the Chou-Talalay method using the CompuSyn ver. 3.0.1 software (ComboSyn Inc., Paramus, NJ, USA).
# HCT116-C3 cells = test: MTT cell viability, HCT116-C3 cells (incl. Chou-Talalay analysis)
# Experimental: as §1
# as §2, with “The synergistic effect of BTK inhibitors on Dau cytotoxicity was evaluated in transfected HCT116 and A549 cells by IC50 determination. Twenty-four” for “Twenty-four”
# [1] = tested on: T1, AKR1C3 in HCT116-C3 cells; test: Dau metabolism to Dau-ol in HCT116 cells transiently overexpressing AKR1C3; conditions: 5 h
# T1 construct: expressed in transfected cells; host or cells: HCT116
# Experimental: as §1
# After transfection of HCT116 cells or seeding of A549 cells (25 × 10^3 cells/well) in 24-well plates for 24 h, the medium was harvested and replaced with DMEM supplemented with 10% FBS containing 1 µM daunorubicin, with or without increasing concentrations (1, 5, and 10 μM) of BTK inhibitors. Cells were incubated (37 °C, 5% CO2) for 2.5 and 5 h (transfected HCT116) or only 5 h (A549). Then, the medium was collected and the cells were lysed in lysis buffer (25 mM Tris, 150 mM NaCl, and 1% Triton X-100, pH 7.8) for 15 min at room temperature. The collected medium was combined with cell lysate for further extraction and analysis of metabolites, as per methods described previously.
# [2] = BTK-inhibitor 5 µM + Dau 0.25 µM
# [3] = BTK-inhibitor 5 µM + Dau 0.50 µM
# [4] = BTK-inhibitor 5 µM + Dau 0.75 µM
# [5] = BTK-inhibitor 5 µM + Dau 1.00 µM
# [6] = BTK-inhibitor 10 µM + Dau 0.25 µM
# [7] = BTK-inhibitor 10 µM + Dau 0.50 µM
# [8] = BTK-inhibitor 10 µM + Dau 0.75 µM
# [9] = BTK-inhibitor 10 µM + Dau 1.00 µM
# [10] = HCT116-C3, BTK-inhibitor 5 µM + Dau 0.25 µM
# [11] = HCT116-C3, BTK-inhibitor 10 µM + Dau 0.25 µM
smiles,measurement,setting,value
"CC#CC(=O)N1CCC[C@H]1c1nc(-c2ccc(C(=O)Nc3ccccn3)cc2)c2c(N)nccn12 [Acalabrutinib, acalabrutinib]",Combination index (CI),HCT116-EV cells; [2],0.64 ± 0.07
same,Dose reduction index for Dau,HCT116-EV cells; [2],1.59 ± 0.16
same,Fraction affected (Fa %),HCT116-EV cells; [2],57.98 ± 10.7%
same,Combination index (CI),HCT116-EV cells; [3],0.80 ± 0.02
same,Dose reduction index for Dau,HCT116-EV cells; [3],1.26 ± 0.03
same,Fraction affected (Fa %),HCT116-EV cells; [3],76.14 ± 4.55%
same,Combination index (CI),HCT116-EV cells; [4],0.73 ± 0.05
same,Dose reduction index for Dau,HCT116-EV cells; [4],1.38 ± 0.09
same,Fraction affected (Fa %),HCT116-EV cells; [4],88.86 ± 2.18%
same,Combination index (CI),HCT116-EV cells; [5],0.93 ± 0.17
same,Dose reduction index for Dau,HCT116-EV cells; [5],1.10 ± 0.20
same,Fraction affected (Fa %),HCT116-EV cells; [5],89.81 ± 0.07%
same,Combination index (CI),HCT116-EV cells; [6],0.64 ± 0.01
same,Dose reduction index for Dau,HCT116-EV cells; [6],1.60 ± 0.00
same,Fraction affected (Fa %),HCT116-EV cells; [6],58.22 ± 6.27%
same,Combination index (CI),HCT116-EV cells; [7],0.68 ± 0.05
same,Dose reduction index for Dau,HCT116-EV cells; [7],1.48 ± 0.11
same,Fraction affected (Fa %),HCT116-EV cells; [7],81.17 ± 2.72%
same,Combination index (CI),HCT116-EV cells; [8],0.62 ± 0.12
same,Dose reduction index for Dau,HCT116-EV cells; [8],1.65 ± 0.31
same,Fraction affected (Fa %),HCT116-EV cells; [8],91.66 ± 0.08%
same,Combination index (CI),HCT116-EV cells; [9],0.88 ± 0.12
same,Dose reduction index for Dau,HCT116-EV cells; [9],1.15 ± 0.15
same,Fraction affected (Fa %),HCT116-EV cells; [9],90.59 ± 0.95%
same,pIC50,"HCT116-EV cells; Homo sapiens, 72 h MTT, read-out: IC50 of BTK inhibitor alone (cell viability)",4.48
same,Dose reduction index for Dau,HCT116-C3 cells; [10],1.38 ± 0.37
same,Fraction affected (Fa %),HCT116-C3 cells; [10],34.59 ± 5.75%
same,Fraction affected (Fa %),"HCT116-C3 cells; HCT116-C3, BTK-inhibitor 5 µM + Dau 0.50 µM",68.43 ± 1.41%
same,Fraction affected (Fa %),"HCT116-C3 cells; HCT116-C3, BTK-inhibitor 5 µM + Dau 0.75 µM",79.88 ± 0.40%
same,Fraction affected (Fa %),"HCT116-C3 cells; HCT116-C3, BTK-inhibitor 5 µM + Dau 1.00 µM",86.61 ± 1.29%
same,Dose reduction index for Dau,HCT116-C3 cells; [11],1.77 ± 0.75
same,Fraction affected (Fa %),HCT116-C3 cells; [11],40.91 ± 11.4%
same,Fraction affected (Fa %),"HCT116-C3 cells; HCT116-C3, BTK-inhibitor 10 µM + Dau 0.50 µM",77.47 ± 0.69%
same,Fraction affected (Fa %),"HCT116-C3 cells; HCT116-C3, BTK-inhibitor 10 µM + Dau 0.75 µM",87.59 ± 1.02%
same,Fraction affected (Fa %),"HCT116-C3 cells; HCT116-C3, BTK-inhibitor 10 µM + Dau 1.00 µM",91.62 ± 0.29%
same,pIC50,"HCT116-C3 cells; Homo sapiens, HCT116-C3, 72 h MTT, read-out: IC50 of BTK inhibitor alone (cell viability)",4.49
same,relative resistance (RR),HCT116-C3 cells; IC50 in HCT116-C3 divided by IC50 in HCT116-EV,0.97
same,decrease in AKR1C3 activity (Dau to Dau-ol),[1]; 1 µM BTK inhibitor + 1 µM Dau,31.96% ± 13.51%
same,decrease in AKR1C3 activity (Dau to Dau-ol),[1]; 5 µM BTK inhibitor + 1 µM Dau,67.15% ± 10.35%
same,decrease in AKR1C3 activity (Dau to Dau-ol),[1]; 10 µM BTK inhibitor + 1 µM Dau,65.56% ± 1.53%
